Measurements from patent publication US7407941B2, “N-desmethyl-N-substituted-11-deoxyerythromycin compounds” (Pfizer, Inc., priority 2003, dated 2008).
In brackets after ≈: the same amount, converted by molar mass.

What was measured:
Type in all cases: cell-based
[1] = tested on: Streptococcus pneumoniae ATCC 49619; test: In vitro antibacterial activity (MIC); conditions: ATCC49619, erythromycin sensitive strain ATCC 49619
Procedure: (§1) Compounds of this invention were tested for in vitro activity against three erythromycin sensitive strains of Streptococcus pneumoniae (ATCC 6301, ATCC 700671, and ATCC 49619), using methods known in the microbiological art.

[2] = tested on: Streptococcus pneumoniae ATCC 70071; test: In vitro antibacterial activity (MIC); conditions: ATCC70071, erythromycin sensitive strain ATCC 70071
Procedure: as §1

[3] = tested on: Streptococcus pneumoniae ATCC 6301; test: In vitro antibacterial activity (MIC); conditions: ATCC6301, erythromycin sensitive strain ATCC 6301
Procedure: as §1

motilin receptor = molecular target: T1, motilin receptor (Homo sapiens, UniProt O43193); test: Motilin agonist activity (activation of the motilin receptor)
T1 construct: expressed in transfected cells
Procedure: Compounds of this invention were tested for motilin agonist activity, following the procedure of Carreras et al., Anal. Biochem., 300, 146-151 (2002), the disclosure of which is incorporated herein by reference.

T1 sequence (O43193 whole entry): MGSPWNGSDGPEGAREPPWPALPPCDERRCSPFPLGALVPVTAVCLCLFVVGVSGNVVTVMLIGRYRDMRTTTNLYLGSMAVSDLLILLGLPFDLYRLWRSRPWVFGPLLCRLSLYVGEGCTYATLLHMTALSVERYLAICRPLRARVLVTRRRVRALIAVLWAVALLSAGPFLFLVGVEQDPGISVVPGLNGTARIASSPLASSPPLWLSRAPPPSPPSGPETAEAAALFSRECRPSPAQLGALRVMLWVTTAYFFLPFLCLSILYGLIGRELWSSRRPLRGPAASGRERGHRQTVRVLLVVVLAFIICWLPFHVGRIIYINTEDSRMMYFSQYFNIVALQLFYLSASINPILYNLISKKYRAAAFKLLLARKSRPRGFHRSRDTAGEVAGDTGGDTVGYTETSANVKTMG

Structure (SMILES) | MIC [1] [µg/mL] | MIC [2] [µg/mL] | MIC [3] [µg/mL] | EC50 (motilin receptor) [nM]
CC[C@H]1OC(=O)[C@H](C)[C@@H](O[C@H]2C[C@@](C)(OC)[C@@H](O)[C@H](C)O2)[C@H](C)[C@@H](O[C@@H]2O[C@H](C)C[C@H](N(C)C)[C@H]2O)C(C)(O)C[C@@H](C)C(=O)[C@H](C)C[C@H]1C (stereo partly drawn) [11-Deoxyerythromycin B, reference compound] | 0.098 (≈ 0.14 µM) | 0.78 (≈ 1.11 µM) | 0.049 (≈ 0.0698 µM) | 1200
CC[C@H]1OC(=O)[C@H](C)[C@@H](O[C@H]2C[C@@](C)(OC)[C@@H](O)[C@H](C)O2)[C@H](C)[C@@H](O[C@@H]2O[C@H](C)C[C@H](N(C)C)[C@H]2O)[C@](C)(O)C[C@@H](C)C(=O)[C@H](C)[C@@H](O)[C@]1(C)O [Erythromycin A, reference compound] | 0.049 (≈ 0.0668 µM) | 0.049 (≈ 0.0668 µM) | 0.025 (≈ 0.0341 µM) | –
CC[C@H]1OC(=O)[C@H](C)[C@@H](O[C@H]2C[C@@](C)(OC)[C@@H](O)[C@H](C)O2)[C@H](C)[C@@H](O[C@@H]2O[C@H](C)C[C@H](N(C)C(C)C)[C@H]2O)C(C)(O)C[C@@H](C)C(=O)[C@H](C)C[C@H]1C (stereo partly drawn) [IVa, N-desmethyl-N-isopropyl-11-deoxyerythromycin B] | 6.25 (≈ 8.56 µM) | 200 (≈ 274 µM) | 12.5 (≈ 17.1 µM) | 700
CC[C@H]1OC(=O)[C@H](C)[C@@H](O[C@H]2C[C@@](C)(OC)[C@@H](O)[C@H](C)O2)[C@H](C)[C@@H](O[C@@H]2O[C@H](C)C[C@H](N(C)CC(C)C)[C@H]2O)C(C)(O)C[C@@H](C)C(=O)[C@H](C)C[C@H]1C (stereo partly drawn) [IVb, N-desmethyl-N-isobutyl-11-deoxyerythromycin B] | 200 (≈ 269 µM) | > 200 | 200 (≈ 269 µM) | 2100
